In patent US9283261B2, “Linaclotide compositions” (Forest Laboratories Holdings Ltd., priority 2012, dated 2016):
Bridge positions count the residues as written; N and C are the ends. Peptide text beside a SMILES is read from it.

What was measured:
[1] = stability of linaclotide compositions with formaldehyde scavenger compounds, Cys1-IMD by RP-HPLC; type: physicochemical; settings: 40° C., 75% relative humidity; for % Cys1-IMD after storage 4 Weeks / % Cys1-IMD after storage 8 Weeks / % Cys1-IMD after storage 13 Week: percent of chromatogram area, labeled canister (formaldehyde stressor); for % decrease in Cys1-IMD as compared to negative control (after 13 weeks) / % Cys1-IMD after storage 13 Week: 13 weeks
Procedure: 60 cc square HPDE bottle (with 33 mm caps with induction seals) were loaded with (i) capsules containing beads coated with 145 μg or 290 μg of linaclotide, a binder, calcium chloride and leucine with an approximate molar ratio of CaCl2:leucine:linaclotide of 60:30:1, (ii) either no formaldehyde scavenger compound (negative control) or a canister comprising one of the formaldehyde scavenger compounds disclosed in Table 3, and (iii) optionally a canister containing 3 grams of a silica gel desiccant.
In addition, some of the linaclotide compositions contained a formaldehyde stressor (in particular, an adhesive label on the desiccant canister that was applied by the manufacturer of the desiccant canister (Sud Chemie) (its presence in some linaclotide compositions is indicated in the table as “labeled canister”). Regarding the formaldehyde stressor canister, it was observed by applicants that the canister emits about 27.5 ug of formaldehyde in 24 hours at 60° C.
The linaclotide compositions were stored in a 40° C., 75% relative humidity stability chamber. Next, the quantity of Cys1-IMD in each linaclotide composition was determined following 4, 8 and 13 week storage via Reverse Phase-HPLC using a gradient elution with UV detection at 220 nm. Quantitation was based on percent of chromatogram area.
Test samples of linaclotide capsules are prepared by emptying the bead contents into flasks, adding diluent and shaking for 30 minutes. The analysis used the bead contents of a composite of 6 or 8 capsules (for 290 μg and 145 μg, respectively). Operating conditions for the analytical test method by HPLC are outlined in Table 2.

[2] = test system: adult patients with IBS-C; assay: double-blind placebo-controlled studies in IBS-C (Study 1 and Study 2); type: in vivo, human; settings: 290 mcg discontinued
Procedure: In this regard, the efficacy of oral dosage forms comprising […] for the management of IBS-C was established in two double-blind, placebo-controlled, randomized, multicenter studies in adult patients. A total of 800 patients in Study 1 and 804 patients in Study 2 (overall mean age of 43.9 years [range 18-87 years with 5.3% ≧65 years of age], 90.1% female, 77.4% white, 18.8% black, and 12.0% Hispanic) received treatment with LINZESS 290 mcg or placebo once daily and were evaluated for efficacy. All patients met Rome II criteria for IBS and were required to report a mean abdominal pain score of ≧3 on a 0-to-10-point numeric rating scale, <3 complete spontaneous bowel movements (CSBMs; a CSBM is a spontaneous bowel movement [SBM] that is associated with a sense of complete evacuation; an SBM is a bowel movement occurring in the absence of laxative use), and ≦5 SBMs per week during a 2-week baseline period. The study designs were identical through the first 12 weeks, and thereafter differed only in that Study 1 included a 4-week randomized withdrawal (RW) period, and Study 2 continued for 14 additional weeks (total of 26 weeks) of double-blinded treatment.
Efficacy of the oral dosage form of linaclotide was assessed using responder and change-from-baseline endpoints. Results for endpoints were based on information provided daily by patients. […]

Row | SMILES | % Cys1-IMD after storage 4 Weeks [1] | % Cys1-IMD after storage 8 Weeks [1] | % decrease in Cys1-IMD as compared to negative control (after 13 weeks) [1] | % Cys1-IMD after storage 13 Week [1] | rebound of bowel symptoms after discontinuation (4-week RW period) [2]
1 | COC(=O)[C@H](Cc1ccccc1)NC(=O)[C@@H](N)CC(=O)O [aspartame] (H-Asp-Phe-OMe) | 0.82% | 1.54% | −27% | 2.58% | 
2 | CNC[C@H](O)[C@@H](O)[C@H](O)[C@H](O)CO [d-meglumine] | 0.59% | 0.81% | −76% | 0.84% | 
3 | NCC(=O)NCC(=O)O [glycine-glycine] (H-Gly-Gly-OH) | 0.89% | 1.40% | −44% | 1.98% | 
4 | N[C@@H](Cc1c[nH]cn1)C(=O)O [histidine] | 0.60% | 0.68% | −72% | 1.00% | 
5 | C[C@@H]1NC(=O)[C@@H]2CCCN2C(=O)[C@H](CC(N)=O)NC(=O)[C@@H]2CSSC[C@H](N)C(=O)N[C@H]3CSSC[C@H](NC1=O)C(=O)N[C@@H]([C@@H](C)O)C(=O)NCC(=O)N[C@H](C(=O)N[C@@H](Cc1ccc(O)cc1)C(=O)O)CSSC[C@H](NC(=O)[C@H](Cc1ccc(O)cc1)NC(=O)[C@H](CCC(=O)O)NC3=O)C(=O)N2 [linaclotide] (H-CCEYCCNPACTGCY-OH; disulfide 1-6, 2-10, 5-13 (inferred); N-terminus and C-terminus assumed) |  |  |  |  | no evidence of rebound worsening
6 | NCCCC[C@H](N)C(=O)O [lysine] | 0.87% | 1.27% | −47% | 1.87% | 

The next lines start with results.

Row | % Cys1-IMD after storage 4 Weeks [1] | % Cys1-IMD after storage 8 Weeks [1] | % decrease in Cys1-IMD as compared to negative control (after 13 weeks) [1] | % Cys1-IMD after storage 13 Week [1] | SMILES | rebound of bowel symptoms after discontinuation (4-week RW period) [2]
7 | 0.56% | 1.11% | −59% | 1.45% | NC(=O)C[C@H](N)C(=O)O [asparagine] | 
8 | 0.84% | 1.26% | −31% | 2.44% | CC(C)C[C@H](N)C(=O)O [leucine] | 
9 | 0.52% | 0.78% | −61% | 1.36% | CC(C)C[C@H](N)C(=O)O [lyophilized leucine, leucine] | 
